Test results taken from PMC5218480 (PLoS ONE, 2017).

Tested on: MV-4-11 cells
Experiment: Gene expression microarray analysis (Affymetrix PrimeView) and GSEA
Assay type: cell-based, human
Design: RFU PODN (11730768_x_at) / Fold change /veh PODN (11730768_x_at) / RFU LINC00158 (11744669_a_at) / Fold change /veh LINC00158 (11744669_a_at) / RFU DUSP10 (11751237_a_at) / Fold change /veh DUSP10 (11751237_a_at) / RFU ID3 (11757404_x_at) / Fold change /veh ID3 (11757404_x_at) / RFU PLEKHG5 (11737974_s_at) / Fold change /veh PLEKHG5 (11737974_s_at) / RFU LRRC4B (11730491_at) / Fold change /veh LRRC4B (11730491_at) / RFU GIMAP4 (11747438_a_at) / Fold change /veh GIMAP4 (11747438_a_at) / RFU KRT8 (11758183_x_at) / Fold change /veh KRT8 (11758183_x_at) / RFU CNN1 (11734310_a_at) / Fold change /veh CNN1 (11734310_a_at) / RFU VPS37D (11726825_at) / Fold change /veh VPS37D (11726825_at) / RFU C10orf10 (11716522_x_at) / Fold change /veh C10orf10 (11716522_x_at) / RFU KIR2DL2 /// KIR2DL4 /// KIR2DL5A /// KIR2DL5B /// KIR2DS1 /// KIR2DS2 /// KIR2DS3 /// KIR2DS4 /// KIR3DL3 /// KIR3DL3 /// KIR3DS1 (11738374_at) / Fold change /veh KIR2DL2 /// KIR2DL4 /// KIR2DL5A /// KIR2DL5B /// KIR2DS1 /// KIR2DS2 /// KIR2DS3 /// KIR2DS4 /// KIR3DL3 /// KIR3DL3 /// KIR3DS1 (11738374_at) / RFU C1QL1 (11718748_at) / Fold change /veh C1QL1 (11718748_at) / RFU TMPRSS4 (11747572_a_at) / Fold change /veh TMPRSS4 (11747572_a_at) / RFU HAMP (11756126_x_at) / Fold change /veh HAMP (11756126_x_at) / RFU RNFT2 (11725882_a_at) / Fold change /veh RNFT2 (11725882_a_at) / RFU NR4A2 (11747474_a_at) / Fold change /veh NR4A2 (11747474_a_at) / RFU ABCC12 (11746883_a_at) / Fold change /veh ABCC12 (11746883_a_at) / RFU TMEM136 (11760407_x_at) / Fold change /veh TMEM136 (11760407_x_at) / RFU CLDN22 /// WWC2 (11732394_at) / Fold change /veh CLDN22 /// WWC2 (11732394_at) / RFU HLA-DPB1 (11760878_x_at) / Fold change /veh HLA-DPB1 (11760878_x_at) / RFU SPINT1 (11716480_a_at) / Fold change /veh SPINT1 (11716480_a_at) / RFU GAP43 (11754022_s_at) / Fold change /veh GAP43 (11754022_s_at) / RFU A4GNT (11735810_at) / Fold change /veh A4GNT (11735810_at) / RFU PRB3 (11715151_x_at) / Fold change /veh PRB3 (11715151_x_at) / RFU TUBB4B (11761932_at) / Fold change /veh TUBB4B (11761932_at) / RFU CAPN14 (11732068_a_at) / Fold change /veh CAPN14 (11732068_a_at) / RFU TMCC2 (11721928_a_at) / Fold change /veh TMCC2 (11721928_a_at) / RFU IRGQ (11745062_a_at) / Fold change /veh IRGQ (11745062_a_at) / RFU FAM174B (11720279_a_at) / Fold change /veh FAM174B (11720279_a_at) / RFU TMPRSS4 (11748680_a_at) / Fold change /veh TMPRSS4 (11748680_a_at) / RFU FAM212B (11763350_a_at) / Fold change /veh FAM212B (11763350_a_at) / RFU PLEKHG5 (11743358_a_at) / Fold change /veh PLEKHG5 (11743358_a_at) / RFU ZSCAN30 (11745921_a_at) / Fold change /veh ZSCAN30 (11745921_a_at) / RFU CMKLR1 (11741424_a_at) / Fold change /veh CMKLR1 (11741424_a_at) / RFU LOC101060620 /// MAPK8IP1 (11723275_at) / Fold change /veh LOC101060620 /// MAPK8IP1 (11723275_at) / RFU SPTSSB (11747773_x_at) / Fold change /veh SPTSSB (11747773_x_at) / RFU PRSS12 (11739890_at) / Fold change /veh PRSS12 (11739890_at) / RFU BIN1 (11741810_x_at) / Fold change /veh BIN1 (11741810_x_at) / RFU WNT11 (11732464_a_at) / Fold change /veh WNT11 (11732464_a_at) / RFU C10orf10 (11716521_a_at) / Fold change /veh C10orf10 (11716521_a_at) / RFU C5orf56 (11738089_at) / Fold change /veh C5orf56 (11738089_at) / RFU CYB561 (11721691_x_at) / Fold change /veh CYB561 (11721691_x_at) / RFU ANKRD19P (11752326_a_at) / Fold change /veh ANKRD19P (11752326_a_at) / RFU OR2T12 /// OR2T33 /// OR2T8 (11738714_s_at) / Fold change /veh OR2T12 /// OR2T33 /// OR2T8 (11738714_s_at) / RFU VCAN (11748164_a_at) / Fold change /veh VCAN (11748164_a_at) / RFU JSRP1 (11732532_at) / Fold change /veh JSRP1 (11732532_at) / RFU KRTAP10-11 (11738290_x_at) / Fold change /veh KRTAP10-11 (11738290_x_at) / RFU MYO3A (11730013_a_at) / Fold change /veh MYO3A (11730013_a_at) / RFU EBF3 (11725865_a_at) / Fold change /veh EBF3 (11725865_a_at) / RFU CAMK2N1 (11719241_x_at) / Fold change /veh CAMK2N1 (11719241_x_at) / RFU C5orf56 (11738088_a_at) / Fold change /veh C5orf56 (11738088_a_at) / RFU OLFML3 (11715873_a_at) / Fold change /veh OLFML3 (11715873_a_at) / RFU LOC100653217 /// NTM (11731650_a_at) / Fold change /veh LOC100653217 /// NTM (11731650_a_at) / RFU MAPK11 (11762145_a_at) / Fold change /veh MAPK11 (11762145_a_at) / RFU FIZ1 (11724087_x_at) / Fold change /veh FIZ1 (11724087_x_at) / RFU OASL (11726364_x_at) / Fold change /veh OASL (11726364_x_at) / RFU SOX15 (11748057_x_at) / Fold change /veh SOX15 (11748057_x_at) / RFU CD79A (11719716_a_at) / Fold change /veh CD79A (11719716_a_at) / RFU HIST1H1D (11736915_at) / Fold change /veh HIST1H1D (11736915_at) / RFU CASKIN2 (11723855_a_at) / Fold change /veh CASKIN2 (11723855_a_at) / RFU LOC730098 (11760151_x_at) / Fold change /veh LOC730098 (11760151_x_at) / RFU OR4N2 (11742367_at) / Fold change /veh OR4N2 (11742367_at) / RFU PRRT2 (11749266_a_at) / Fold change /veh PRRT2 (11749266_a_at) / RFU SNX32 (11753110_a_at) / Fold change /veh SNX32 (11753110_a_at) / RFU CDHR5 (11726645_a_at) / Fold change /veh CDHR5 (11726645_a_at) / RFU RCAN1 (11760418_a_at) / Fold change /veh RCAN1 (11760418_a_at) / RFU FAM167A (11723789_a_at) / Fold change /veh FAM167A (11723789_a_at) / RFU FAM26E (11764081_at) / Fold change /veh FAM26E (11764081_at) / RFU ISYNA1 (11749810_s_at) / Fold change /veh ISYNA1 (11749810_s_at) / RFU ACY1 (11761880_at) / Fold change /veh ACY1 (11761880_at) / RFU 11764098_at / Fold change /veh 11764098_at / RFU SAMD14 (11745864_x_at) / Fold change /veh SAMD14 (11745864_x_at) / RFU NPB (11741838_a_at) / Fold change /veh NPB (11741838_a_at) / RFU TMPRSS6 (11731388_a_at) / Fold change /veh TMPRSS6 (11731388_a_at) / RFU KRTAP10-2 (11738614_at) / Fold change /veh KRTAP10-2 (11738614_at) / RFU ARHGAP8 /// PRR5-ARHGAP8 (11727945_x_at) / Fold change /veh ARHGAP8 /// PRR5-ARHGAP8 (11727945_x_at) / RFU KRTAP5-7 /// NADSYN1 (11734609_at) / Fold change /veh KRTAP5-7 /// NADSYN1 (11734609_at) / RFU RASL12 (11751679_a_at) / Fold change /veh RASL12 (11751679_a_at) / RFU CDKN2B (11736163_a_at) / Fold change /veh CDKN2B (11736163_a_at) / RFU PRF1 (11729649_at) / Fold change /veh PRF1 (11729649_at) / RFU, ZNF638 /// ZNF638-IT1 / Fold change vs veh, ZNF638 /// ZNF638-IT1 / RFU, PANK3 / Fold change vs veh, PANK3 / RFU, SH3YL1 / Fold change vs veh, SH3YL1 / RFU, ZEB2 / Fold change vs veh, ZEB2 / RFU, NRIP1 / Fold change vs veh, NRIP1 / RFU, PTTG1IP / Fold change vs veh, PTTG1IP / RFU, CAPN2 / Fold change vs veh, CAPN2 / RFU, MED14 / Fold change vs veh, MED14 / RFU, SNORA58 / Fold change vs veh, SNORA58 / RFU, C1orf63 / Fold change vs veh, C1orf63 / RFU, LRRFIP1 / Fold change vs veh, LRRFIP1 / RFU, NDUFAF7 / Fold change vs veh, NDUFAF7 / RFU, SLC12A2 / Fold change vs veh, SLC12A2 / RFU, IBTK / Fold change vs veh, IBTK / RFU, ESF1 / Fold change vs veh, ESF1 / Fold change vs veh, TMEM50B / RFU, TAOK1 / Fold change vs veh, TAOK1 / RFU, ACBD3 / Fold change vs veh, ACBD3 / RFU, TMA16 / Fold change vs veh, TMA16 / RFU, RWDD3 / Fold change vs veh, RWDD3 / RFU, BCAT1 / Fold change vs veh, BCAT1 / RFU, EDEM3 / Fold change vs veh, EDEM3 / RFU, TMEM33 / Fold change vs veh, TMEM33 / RFU, WDR75 / Fold change vs veh, WDR75 / RFU, AHCTF1 / Fold change vs veh, AHCTF1 / RFU, TFRC / Fold change vs veh, TFRC / RFU, ZDHHC17 / Fold change vs veh, ZDHHC17 / RFU, NOM1 / Fold change vs veh, NOM1 / RFU, ARL8B / Fold change vs veh, ARL8B / RFU, ZBTB11 / Fold change vs veh, ZBTB11 / RFU, TAMM41 / Fold change vs veh, TAMM41 / RFU, KIAA1704 /// LOC100996395 / Fold change vs veh, KIAA1704 /// LOC100996395 / RFU, ING1 / Fold change vs veh, ING1 / RFU, TRMT61B / Fold change vs veh, TRMT61B / RFU, FUBP3 / Fold change vs veh, FUBP3 / RFU, TP53 / Fold change vs veh, TP53 / RFU, TNKS2 / Fold change vs veh, TNKS2 / RFU, ZFP14 / Fold change vs veh, ZFP14 / RFU, ACTR2 / Fold change vs veh, ACTR2 / RFU, PPP3R1 / Fold change vs veh, PPP3R1 / RFU, PIK3R1 / Fold change vs veh, PIK3R1 / RFU, HNRNPA1 / Fold change vs veh, HNRNPA1 / RFU, RNF170 / Fold change vs veh, RNF170 / RFU, ZNF28 / Fold change vs veh, ZNF28 / RFU, RNGTT / Fold change vs veh, RNGTT / RFU, OGT / Fold change vs veh, OGT / RFU, BRD1 / Fold change vs veh, BRD1 / RFU, MARS / Fold change vs veh, MARS / RFU, ZNF655 / Fold change vs veh, ZNF655 / RFU, FAHD1 / Fold change vs veh, FAHD1 / RFU, BDP1 / Fold change vs veh, BDP1 / RFU, LRRCC1 / Fold change vs veh, LRRCC1 / RFU, ARID1A / Fold change vs veh, ARID1A / RFU, ZNF146 / Fold change vs veh, ZNF146 / RFU, ZNF330 / Fold change vs veh, ZNF330 / RFU, GPN3 / Fold change vs veh, GPN3 / RFU, C9orf123 / Fold change vs veh, C9orf123 / RFU, N4BP2L2 / Fold change vs veh, N4BP2L2 / RFU, ARFIP1 / Fold change vs veh, ARFIP1 / RFU, FAM179B / Fold change vs veh, FAM179B / RFU, BCL10 / Fold change vs veh, BCL10 / RFU, UHRF1BP1L / Fold change vs veh, UHRF1BP1L / RFU, BET1 / Fold change vs veh, BET1 / RFU, CNOT2 / Fold change vs veh, CNOT2 / RFU, ZNF268 / Fold change vs veh, ZNF268 / Fold change vs veh, ZNF507 / RFU, DGCR2 / Fold change vs veh, DGCR2 / RFU, WDSUB1 / Fold change vs veh, WDSUB1 / Fold change vs veh, HSP90B1 /// MIR3652 / RFU, ADSS / Fold change vs veh, ADSS / RFU, GK / Fold change vs veh, GK / RFU, ZNF148 / Fold change vs veh, ZNF148 / RFU, TAF9 / Fold change vs veh, TAF9 / RFU, SLC1A5 / Fold change vs veh, SLC1A5 / RFU, SLMO2 / Fold change vs veh, SLMO2 / RFU, ABCC4 / Fold change vs veh, ABCC4 / RFU, LOC101060439 /// RAP1B / Fold change vs veh, LOC101060439 /// RAP1B / RFU, RFX7 / Fold change vs veh, RFX7 / RFU, GTPBP10 / Fold change vs veh, GTPBP10 / RFU, CNEP1R1 / Fold change vs veh, CNEP1R1 / RFU, BIVM-ERCC5 /// ERCC5 / Fold change vs veh, BIVM-ERCC5 /// ERCC5 / RFU, ILF3 / Fold change vs veh, ILF3 / RFU 11762660_at / Fold change /veh 11762660_at / RFU VCAN (11757783_s_at) / Fold change /veh VCAN (11757783_s_at) / RFU DDX43 (11728927_at) / Fold change /veh DDX43 (11728927_at) / RFU KRT8 (11758188_x_at) / Fold change /veh KRT8 (11758188_x_at) / RFU NKD1 (11759106_at) / Fold change /veh NKD1 (11759106_at) / RFU SRD5A1 (11742802_a_at) / Fold change /veh SRD5A1 (11742802_a_at) / RFU TPSAB1 /// TPSB2 (11721975_s_at) / Fold change /veh TPSAB1 /// TPSB2 (11721975_s_at) / RFU GSTM3 (11746129_a_at) / Fold change /veh GSTM3 (11746129_a_at) / RFU IL23R (11737362_x_at) / Fold change /veh IL23R (11737362_x_at) / RFU TMEM51 (11727254_a_at) / Fold change /veh TMEM51 (11727254_a_at) / RFU PIWIL2 (11732686_x_at) / Fold change /veh PIWIL2 (11732686_x_at) / RFU ORM1 (11744905_x_at) / Fold change /veh ORM1 (11744905_x_at) / RFU CCDC152 (11743942_at) / Fold change /veh CCDC152 (11743942_at) / RFU ECM1 (11717891_a_at) / Fold change /veh ECM1 (11717891_a_at) / RFU IL23R (11748794_a_at) / Fold change /veh IL23R (11748794_a_at) / RFU TNFAIP8L3 (11732012_x_at) / Fold change /veh TNFAIP8L3 (11732012_x_at) / RFU MBOAT4 (11741988_at) / Fold change /veh MBOAT4 (11741988_at) / RFU 11764193_at / Fold change /veh 11764193_at / RFU TMEM53 (11763286_at) / Fold change /veh TMEM53 (11763286_at) / RFU MAGEB2 (11727129_at) / Fold change /veh MAGEB2 (11727129_at) / RFU TMEM200A (11744735_a_at) / Fold change /veh TMEM200A (11744735_a_at) / RFU CCDC152 (11751479_a_at) / Fold change /veh CCDC152 (11751479_a_at) / RFU FAM211A (11726209_a_at) / Fold change /veh FAM211A (11726209_a_at) / RFU RGS16 (11746705_a_at) / Fold change /veh RGS16 (11746705_a_at) / RFU VCAN (11755009_s_at) / Fold change /veh VCAN (11755009_s_at) / RFU RHOB (11743442_s_at) / Fold change /veh RHOB (11743442_s_at) / RFU RGS16 (11720943_a_at) / Fold change /veh RGS16 (11720943_a_at) / RFU RGS16 (11720944_at) / Fold change /veh RGS16 (11720944_at) / RFU, VPS4B / Fold change vs veh, VPS4B / RFU, CREB1 / Fold change vs veh, CREB1 / RFU, DNAJC13 / Fold change vs veh, DNAJC13 / RFU, GNAQ / Fold change vs veh, GNAQ / RFU, CDK5R1 / Fold change vs veh, CDK5R1 / RFU, ZRANB3 / Fold change vs veh, ZRANB3 / RFU, CUL4A / Fold change vs veh, CUL4A / RFU, CCNY / Fold change vs veh, CCNY / RFU, UFL1 / Fold change vs veh, UFL1 / RFU, COG3 / Fold change vs veh, COG3 / RFU, DIAPH2 / Fold change vs veh, DIAPH2 / RFU, SKA2 / Fold change vs veh, SKA2 / RFU, AFF3 / Fold change vs veh, AFF3 / RFU, LMF1 / Fold change vs veh, LMF1 / RFU, IPO11 / Fold change vs veh, IPO11 / RFU, DFFB / Fold change vs veh, DFFB / RFU, FOXP1 / Fold change vs veh, FOXP1 / RFU, CARD8 / Fold change vs veh, CARD8 / RFU, STRN3 / Fold change vs veh, STRN3 / RFU, ADK / Fold change vs veh, ADK / RFU, RASSF2 / Fold change vs veh, RASSF2 / RFU, WIPF1 / Fold change vs veh, WIPF1 / RFU, LARP1B / Fold change vs veh, LARP1B / RFU, RASA1 / Fold change vs veh, RASA1 / RFU, RB1 / Fold change vs veh, RB1 / RFU, PPFIA1 / Fold change vs veh, PPFIA1 / RFU, MAT2A / Fold change vs veh, MAT2A / RFU, CCT5 / Fold change vs veh, CCT5 / RFU, WDR92 / Fold change vs veh, WDR92 / RFU, CUX1 / Fold change vs veh, CUX1 / RFU, TTC7A / Fold change vs veh, TTC7A / RFU, TMEM135 / Fold change vs veh, TMEM135 / RFU, DEPTOR / Fold change vs veh, DEPTOR / RFU, CPM / Fold change vs veh, CPM / RFU, DNAJB6 / Fold change vs veh, DNAJB6 / RFU, CACNA2D3 / Fold change vs veh, CACNA2D3 / RFU, DTX4 / Fold change vs veh, DTX4 / RFU, TFCP2 / Fold change vs veh, TFCP2 / RFU, GMCL1 /// GMCL1P1 / Fold change vs veh, GMCL1 /// GMCL1P1 / RFU, AEBP2 / Fold change vs veh, AEBP2 / RFU, SNHG1 /// SNORD22 /// SNORD25 /// SNORD26 /// SNORD27 /// SNORD28 /// SNORD29 /// SNORD31 / Fold change vs veh, SNHG1 /// SNORD22 /// SNORD25 /// SNORD26 /// SNORD27 /// SNORD28 /// SNORD29 /// SNORD31 / Fold change (Aza/veh), C12orf56 (ProbeSet 11735607_a_at) / Fold change (ACY-1035/veh), C12orf56 (ProbeSet 11735607_a_at) / Fold change (Aza/veh), FGFR1OP (ProbeSet 11751329_s_at) / Fold change (ACY-1035/veh), FGFR1OP (ProbeSet 11751329_s_at) / Fold change (Aza/veh), VPS36 (ProbeSet 11739960_a_at) / Fold change (ACY-1035/veh), VPS36 (ProbeSet 11739960_a_at) / RFU SYPL1 (11715823_x_at) / Fold change /veh SYPL1 (11715823_x_at) / RFU IGFBP7 (11715501_s_at) / Fold change /veh IGFBP7 (11715501_s_at) / RFU REEP3 (11722064_at) / Fold change /veh REEP3 (11722064_at) / RFU IGLL1 (11728026_x_at) / Fold change /veh IGLL1 (11728026_x_at): dose or concentration left out as unconfirmed
Settings: ProbeSet 11758919_x_at; LIST D

With `Nc1ncn([C@@H]2O[C@H](CO)[C@@H](O)[C@H]2O)c(=O)n1` [azacitidine] the “Fold change vs veh, TFCP2” value was 0.71.
